PubChem BioAssay (NCI)
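Interpolation was linear, between the two tested concentrations surrounding the appropriate level; five concentrations were tested over 48 hours in 96-well plates. The concentration for full growth arrest is given as TGI.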

Legend:
Assay in all cases: DTP human tumour cell line panel, 48 h
[1] = test system: CCRF-CEM leukemia
[2] = test system: HCC-2998 colon
[3] = test system: NCI/ADR-RES ovarian
[4] = test system: HOP-62 NSCLC
[5] = test system: A498 renal
[6] = test system: M14 melanoma
[7] = test system: KM12 colon
[8] = test system: HCT-15 colon
[9] = test system: K-562 leukemia
[10] = test system: ACHN renal
[11] = test system: HT29 colon
[12] = test system: BT-549 breast
[13] = test system: HCT-116 colon
[14] = test system: MDA-MB-231 breast
[15] = test system: COLO 205 colon
[16] = test system: SF-295 CNS
[17] = test system: OVCAR-8 ovarian
[18] = test system: CAKI-1 renal
[19] = test system: 786-0 renal
[20] = test system: A549 NSCLC
[21] = test system: MDA-N
[22] = test system: U251 CNS
[23] = test system: LOX IMVI melanoma
[24] = test system: MOLT-4 leukemia
[25] = test system: UO-31 renal
[26] = test system: SNB-75 CNS
[27] = test system: NCI-H23 lung
[28] = test system: SK-MEL-5 melanoma
[29] = test system: UACC-62 melanoma
[30] = test system: NCI-H522 lung
[31] = test system: SK-OV-3 ovarian
[32] = test system: MDA-MB-435
[33] = test system: SK-MEL-2 melanoma
[34] = test system: NCI-H460 lung
[35] = test system: SN12C renal
[36] = test system: MCF7 breast
[37] = test system: EKVX NSCLC
[38] = test system: IGROV1 ovarian
[39] = test system: OVCAR-4 ovarian
[40] = test system: HL-60(TB) leukemia
[41] = test system: T-47D breast
[42] = test system: PC-3 prostate
[43] = test system: OVCAR-5 ovarian
[44] = test system: UACC-257 melanoma
[45] = test system: RPMI-8226 leukemia
[46] = test system: TK-10 renal
[47] = test system: DU-145 prostate
[48] = test system: SNB-19 CNS
[49] = test system: HOP-92 NSCLC
[50] = test system: SF-268 CNS
[51] = test system: RXF 393 renal
[52] = test system: SW-620 colon
[53] = test system: SF-539 CNS
[54] = test system: NCI-H226 lung
[55] = test system: HS 578T breast
[56] = test system: SK-MEL-28 melanoma
[57] = test system: OVCAR-3 ovarian

Cc1cc(O)c(/C=N/c2nc(-c3ccc([N+](=O)[O-])cc3)cs2)c(=O)o1
TGI [1]: > 100 µM | TGI [2]: > 100 µM | TGI [3]: > 100 µM | TGI [4]: > 100 µM | TGI [5]: > 100 µM | TGI [6]: > 100 µM | TGI [7]: > 100 µM | TGI [8]: > 100 µM | TGI [9]: > 100 µM | TGI [10]: > 100 µM | TGI [11]: > 100 µM | TGI [12]: > 100 µM | TGI [13]: > 100 µM | TGI [14]: > 100 µM | TGI [15]: > 100 µM | TGI [16]: > 100 µM | TGI [17]: > 100 µM | TGI [18]: > 100 µM | TGI [19]: > 100 µM | TGI [20]: > 100 µM | TGI [21]: > 100 µM | TGI [22]: > 100 µM | TGI [23]: > 100 µM | TGI [24]: > 100 µM | TGI [25]: > 100 µM | TGI [26]: > 100 µM | TGI [27]: > 100 µM | TGI [28]: > 100 µM | TGI [29]: > 100 µM | TGI [30]: > 100 µM | TGI [31]: > 100 µM | TGI [32]: > 100 µM | TGI [33]: > 100 µM | TGI [34]: > 100 µM | TGI [35]: > 100 µM | TGI [36]: > 100 µM | TGI [37]: > 100 µM | TGI [38]: > 100 µM | TGI [39]: > 100 µM | TGI [40]: 75 µM | TGI [41]: > 100 µM | TGI [42]: > 100 µM | TGI [43]: > 100 µM | TGI [44]: > 100 µM | TGI [45]: > 100 µM | TGI [46]: > 100 µM | TGI [47]: > 100 µM | TGI [48]: > 100 µM | TGI [49]: > 100 µM | TGI [50]: > 100 µM | TGI [51]: > 100 µM | TGI [52]: > 100 µM | TGI [53]: > 100 µM | TGI [54]: > 100 µM | TGI [55]: > 100 µM

CCOP(=O)(/C=C/n1ccc(N)nc1=O)OCC
TGI [56]: > 100 µM | TGI [1]: > 100 µM | TGI [3]: > 100 µM | TGI [4]: > 100 µM | TGI [5]: > 100 µM | TGI [57]: > 100 µM | TGI [6]: > 100 µM | TGI [7]: > 100 µM | TGI [8]: > 100 µM | TGI [9]: > 100 µM | TGI [10]: > 100 µM | TGI [11]: > 100 µM | TGI [12]: > 100 µM | TGI [13]: > 100 µM | TGI [14]: > 100 µM | TGI [15]: > 100 µM | TGI [16]: > 100 µM | TGI [17]: > 100 µM | TGI [18]: > 100 µM | TGI [19]: > 100 µM | TGI [20]: > 100 µM | TGI [21]: > 100 µM | TGI [22]: > 100 µM | TGI [23]: > 100 µM | TGI [24]: > 100 µM | TGI [26]: > 100 µM | TGI [27]: > 100 µM | TGI [28]: > 100 µM | TGI [29]: > 100 µM | TGI [30]: > 100 µM | TGI [31]: > 100 µM | TGI [32]: > 100 µM | TGI [33]: > 100 µM | TGI [34]: > 100 µM | TGI [35]: > 100 µM | TGI [36]: > 100 µM | TGI [37]: > 100 µM | TGI [38]: > 100 µM | TGI [39]: > 100 µM | TGI [40]: > 100 µM | TGI [41]: > 100 µM | TGI [42]: > 100 µM | TGI [43]: > 100 µM | TGI [44]: > 100 µM | TGI [45]: > 100 µM | TGI [46]: > 100 µM | TGI [47]: > 100 µM | TGI [48]: > 100 µM | TGI [50]: > 100 µM | TGI [51]: > 100 µM | TGI [52]: > 100 µM | TGI [53]: > 100 µM | TGI [54]: > 100 µM | TGI [55]: > 100 µM
